Laboratory results taken from patent US20100267561A1, “HERBICIDAL PYRIDAZINONE DERIVATIVES” (priority 2007, published 2010).

Experiments:
Type in all cases: in vivo
[1] = tested on: ducksalad (Heteranthera limosa); assay: Test B flooded paddy test plant response; conditions: Heteranthera limosa, read-out: Plant response rating, Ducksalad
Method in brief: (§1)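 Paddy-water application to 2-leaf plants in pots held under 3 cm of flooding; response is a 0–100 visual control rating against controls after 13 to 15 days, and a dash marks a missing result.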

rice (Oryza sativa) = assay: Test B flooded paddy test plant response; conditions: Oryza sativa, read-out: Plant response rating, Rice
Method in brief: as §1

[2] = tested on: umbrella sedge (Cyperus difformis); assay: Test B flooded paddy test plant response; conditions: Cyperus difformis, read-out: Plant response rating, Sedge, Umbrella
Method in brief: as §1

[3] = tested on: Italian ryegrass (Lolium multiflorum); assay: Test C pre-/postemergence plant response
Method in brief: (§2)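 Plant response was judged by eye against untreated controls following 15 to 25 days in a controlled growth environment, using 0 for no effect and 100 for complete control. Treatments were made both preemergence and postemergence, the latter on plants of 1- to 4-leaf stage.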

[4] = tested on: annual bluegrass (Poa annua); assay: Test C pre-/postemergence plant response
Method in brief: as §2

[5] = tested on: blackgrass (Alopecurus myosuroides); assay: Test C pre-/postemergence plant response
Method in brief: as §2

[6] = tested on: canarygrass (Phalaris minor); assay: Test C pre-/postemergence plant response
Method in brief: as §2

[7] = tested on: downy bromegrass (Bromus tectorum); assay: Test C pre-/postemergence plant response
Method in brief: as §2

[8] = tested on: green foxtail (Setaria viridis); assay: Test C pre-/postemergence plant response
Method in brief: as §2

[9] = tested on: pigweed (Amaranthus retroflexus); assay: Test C pre-/postemergence plant response
Method in brief: as §2

[10] = tested on: spring barley (Hordeum vulgare); assay: Test C pre-/postemergence plant response
Method in brief: as §2

[11] = tested on: spring wheat (Triticum aestivum); assay: Test C pre-/postemergence plant response
Method in brief: as §2

[12] = tested on: wild mustard (Sinapis arvensis); assay: Test C pre-/postemergence plant response
Method in brief: as §2

wild oat (Avena fatua) = assay: Test C pre-/postemergence plant response
Method in brief: as §2

[13] = tested on: windgrass (Apera spica-venti); assay: Test C pre-/postemergence plant response
Method in brief: as §2

[14] = tested on: winter barley (Hordeum vulgare); assay: Test C pre-/postemergence plant response
Method in brief: as §2

[15] = tested on: winter wheat (Triticum aestivum); assay: Test C pre-/postemergence plant response
Method in brief: as §2

[16] = Flood (flooded paddy test), 62 g ai/ha, scale 0 to 100, 0 no effect, 100 complete control
[17] = Flood (flooded paddy test), 250 g ai/ha, scale 0 to 100, 0 no effect, 100 complete control
[18] = Flood, 31 g ai/ha, scale 0 to 100
[19] = Flood (flooded paddy test), 125 g ai/ha, scale 0 to 100, 0 no effect, 100 complete control
[20] = Postemergence, 8 g ai/ha, scale 0 to 100, 0 no effect, 100 complete control
[21] = Postemergence, 16 g ai/ha, scale 0 to 100, 0 no effect, 100 complete control
[22] = Postemergence, 31 g ai/ha, scale 0 to 100, 0 no effect, 100 complete control
[23] = Postemergence, 62 g ai/ha, scale 0 to 100, 0 no effect, 100 complete control
[24] = Preemergence, 8 g ai/ha, scale 0 to 100 (0 no effect, 100 complete control)
[25] = Preemergence, 16 g ai/ha, scale 0 to 100 (0 no effect, 100 complete control)
[26] = Preemergence, 31 g ai/ha, scale 0 to 100 (0 no effect, 100 complete control)
[27] = Preemergence, 62 g ai/ha, scale 0 to 100, 0 no effect, 100 complete control

CCc1c(C)c(-c2ccc(Cl)cc2)nn1-c1c(O)cnn(C)c1=O [Compound 26, 4-[3-(4-chlorophenyl)-5-ethyl-4-methyl-1H-pyrazol-1-yl]-5-hydroxy-2-methyl-3(2H)-pyridazinone]
50: Plant response rating, Blackgrass [5, 20] | Plant response rating, Blackgrass [5, 21] | Plant response rating, Blackgrass [5, 25] | Plant response rating, Barley, Spring [10, 23]
30: Plant response rating, Wheat, Spring [11, 22] | Plant response rating, Wheat, Spring [11, 23] | Plant response rating, Windgrass [13, 24] | Plant response rating, Windgrass [13, 25] | Plant response rating, Wheat, Winter [15, 22]
15: Plant response rating, Ryegrass, Italian [3, 24] | Plant response rating, Bluegrass [4, 23] | Plant response rating, Oat, Wild (wild oat (Avena fatua); [25])
95: Plant response rating, Ryegrass, Italian [3, 22] | Plant response rating, Blackgrass [5, 23] | Plant response rating, Foxtail, Green [8, 21] | Plant response rating, Foxtail, Green [8, 22]
0: Plant response rating, Bluegrass [4, 20] | Plant response rating, Bluegrass [4, 21] | Plant response rating, Bluegrass [4, 22] | Plant response rating, Bluegrass [4, 24] | Plant response rating, Bluegrass [4, 25] | Plant response rating, Bluegrass [4, 26] | Plant response rating, Bluegrass [4, 27] | Plant response rating, Canarygrass [6, 24] | Plant response rating, Canarygrass [6, 25] | Plant response rating, Bromegrass, Downy [7, 20] | Plant response rating, Bromegrass, Downy [7, 21] | Plant response rating, Bromegrass, Downy [7, 22] | Plant response rating, Bromegrass, Downy [7, 23] | Plant response rating, Bromegrass, Downy [7, 24] | Plant response rating, Bromegrass, Downy [7, 25] | Plant response rating, Bromegrass, Downy [7, 26] | Plant response rating, Foxtail, Green [8, 24] | Plant response rating, Foxtail, Green [8, 25] | Plant response rating, Pigweed [9, 20] | Plant response rating, Pigweed [9, 21] | Plant response rating, Pigweed [9, 22] | Plant response rating, Pigweed [9, 24] | Plant response rating, Pigweed [9, 25] | Plant response rating, Pigweed [9, 26] | Plant response rating, Barley, Spring [10, 20] | Plant response rating, Barley, Spring [10, 21] | Plant response rating, Barley, Spring [10, 24] | Plant response rating, Barley, Spring [10, 25] | Plant response rating, Wheat, Spring [11, 24] | Plant response rating, Wheat, Spring [11, 25] | Plant response rating, Mustard, Wild [12, 20] | Plant response rating, Mustard, Wild [12, 21] | Plant response rating, Mustard, Wild [12, 24] | Plant response rating, Mustard, Wild [12, 25] | Plant response rating, Mustard, Wild [12, 26] | Plant response rating, Mustard, Wild [12, 27] | Plant response rating, Oat, Wild (wild oat (Avena fatua); [24]) | Plant response rating, Windgrass [13, 20] | Plant response rating, Windgrass [13, 21] | Plant response rating, Barley, Winter [14, 20] | Plant response rating, Barley, Winter [14, 21] | Plant response rating, Barley, Winter [14, 24] | Plant response rating, Barley, Winter [14, 25] | Plant response rating, Wheat, Winter [15, 20] | Plant response rating, Wheat, Winter [15, 21] | Plant response rating, Wheat, Winter [15, 24] | Plant response rating, Wheat, Winter [15, 25] | Plant response rating, Wheat, Winter [15, 26]
75: Plant response rating, Ryegrass, Italian [3, 25] | Plant response rating, Blackgrass [5, 27] | Plant response rating, Canarygrass [6, 21] | Plant response rating, Canarygrass [6, 22] | Plant response rating, Foxtail, Green [8, 26] | Plant response rating, Oat, Wild (wild oat (Avena fatua); [27])
100: Plant response rating, Ryegrass, Italian [3, 23] | Plant response rating, Ryegrass, Italian [3, 26] | Plant response rating, Ryegrass, Italian [3, 27] | Plant response rating, Canarygrass [6, 23] | Plant response rating, Foxtail, Green [8, 27] | Plant response rating, Oat, Wild (wild oat (Avena fatua); [23]) | Plant response rating, Windgrass [13, 27]
35: Plant response rating, Barley, Spring [10, 22] | Plant response rating, Barley, Spring [10, 27] | Plant response rating, Wheat, Winter [15, 23]
70: Plant response rating, Ryegrass, Italian [3, 20] | Plant response rating, Blackgrass [5, 22] | Plant response rating, Canarygrass [6, 27] | Plant response rating, Oat, Wild (wild oat (Avena fatua); [20])
50%: pest or weed control at 62 g/ha [1, 16]
85: Plant response rating, Ryegrass, Italian [3, 21]
20: Plant response rating, Blackgrass [5, 24] | Plant response rating, Bromegrass, Downy [7, 27] | Plant response rating, Pigweed [9, 23] | Plant response rating, Pigweed [9, 27] | Plant response rating, Windgrass [13, 22]
90: Plant response rating, Foxtail, Green [8, 20]
75%: pest or weed control at 250 g/ha [2, 17]
25: Plant response rating, Canarygrass [6, 20] | Plant response rating, Barley, Spring [10, 26] | Plant response rating, Wheat, Spring [11, 26] | Plant response rating, Wheat, Spring [11, 27] | Plant response rating, Wheat, Winter [15, 27]
98: Plant response rating, Foxtail, Green [8, 23] | Plant response rating, Oat, Wild (wild oat (Avena fatua); [21]) | Plant response rating, Oat, Wild (wild oat (Avena fatua); [22]) | Plant response rating, Windgrass [13, 26]
65: Plant response rating, Canarygrass [6, 26] | Plant response rating, Oat, Wild (wild oat (Avena fatua); [26]) | Plant response rating, Windgrass [13, 23]
70%: pest or weed control at 250 g/ha [1, 17]
40%: pest or weed control at 31 g/ha [1, 18]
0%: plant injury at 62 g/ha (rice (Oryza sativa); [16]) | plant injury at 125 g/ha (rice (Oryza sativa); [19]) | plant injury at 250 g/ha (rice (Oryza sativa); [17]) | plant injury at 31 g/ha (rice (Oryza sativa); [18]) | pest or weed control at 62 g/ha [2, 16] | pest or weed control at 125 g/ha [2, 19] | pest or weed control at 31 g/ha [2, 18]
40: Plant response rating, Barley, Winter [14, 23]
10: Plant response rating, Wheat, Spring [11, 20] | Plant response rating, Wheat, Spring [11, 21] | Plant response rating, Barley, Winter [14, 22] | Plant response rating, Barley, Winter [14, 26] | Plant response rating, Barley, Winter [14, 27]
